Assay results from US20250154686A1, “COMPOUND LIBRARY” (CHUGAI SEIYAKU KABUSHIKI KAISHA, priority 2021, published 2025).
pKd: −log10 of the molar value.

Columns and labels:
[1] = biological target: T1, Bcl-2 protein (Recombinant Human Bcl-2 Protein) (Homo sapiens, UniProt P10415); assay: AS-MS evaluation of binding of the mixture libraries of Examples 8 and 9 to Bcl-2, ASMS ratio (%), Example 11; settings: ASMS ratio, mixtures obtained from Example 9, 10 uM Bcl-2 protein; for AS-MS(%) N1: replicate N1; for AS-MS(%) N2: replicate N2; for AS-MS(%) N3: replicate N3 (additional day); for AS-MS(%) N4: replicate N4 (additional day)
T1 construct: purchased Novus Biologicals NBP2-34889
Description: DMSO solutions (prepared into approximately 5 mM based on calculation from the average molecular weight of each mixture) of the mixtures of each Example shown in Table 11-1-1 were respectively dispensed to 8 wells of MICROPLATE, 96-WELL, PP, V-BOTTOM (Greiner Bio-One International GmbH, 651201). 400 nL each from the 8 wells of the mixtures obtained from Example 8 was dispensed into 3 designated wells while 200 nL each from the 8 wells of the mixtures obtained from Example 9 was dispensed into 3 designated wells, using LABCYTE ECHO® 555 acoustic dispensing system (Beckman Coulter, Inc.). 200 nL each of two types of 10 μM positive controls (B2Q045-01 and B2Q048-01) was dispensed to the mixtures obtained from Example 8. Likewise, 100 nL each of two types of 20 μM positive controls and 400 nL of a DMSO solution by backfill was dispensed to the mixtures obtained from Example 9. Further, Bcl-2 protein (Novus Biologicals, NBP2-34889, Recombinant Human Bcl-2 Protein, Lot E60145051) (19.2 μL) prepared at 5 µM (final protein concentration) for the mixtures obtained from Example 8 and 10 µM (final protein concentration) for the mixtures obtained from Example 9, in advance using a Tris-HCl buffer (25 mM Tris-HCl, pH 7.4, 150 mM NaCl, 0.025% Tween-20, and 1 mM DTT) was added to the well containing the dispensed 1000 compounds or 500 compounds (final compound concentration: 100 nM), and the plate was incubated at 23° C. for 1 hour in the dark. Subsequently, 200 μL of an assay buffer (25 mM Tris-HCl, pH 7.4, 150 mM NaCl, 0.025% Tween-20, and 1 mM DTT) was centrifuged three times at 2000×G at 4° C. for 2 minutes using 96-well MacroSpin column, P-2 Material (Harvard Bioscience, Inc., 74-5655) that had been allowed to swell to condition the 96-well MacroSpin column. Subsequently, 20 μL of the sample thus incubated was added to the 96-well MacroSpin column, P-2 Material after the completion of conditioning, and SEC treatment was performed by centrifugation at 2000×G for 2 minutes. 32 μL of a 1:1 mixed solution of acetonitrile and methanol (LC/MS grade, FUJIFILM Wako Pure Chemical Corp.) was added to a flow-through liquid from SEC, and the mixture was centrifuged at 1800×G at 4° C. for 5 minutes. The supernatant was used as analysis sample ASMS (A). By a similar operation, a sample prepared at 500 compounds/well or 1000 compounds/well and supplemented with only a Tris-HCl buffer containing no Bcl-2 protein was incubated under the same conditions as above, and the same organic solvent as above was added thereto without 96-well MacroSpin column treatment. A supernatant obtained by a centrifugation operation was used as STD (B). Next, by a similar operation, a sample prepared at 1000 compounds/well or 500 compounds/well and supplemented with only a Tris-HCl buffer containing no Bcl-2 protein was incubated under the same conditions as above and treated with 96-well MacroSpin column in the same manner as above, and the same organic solvent as above was added thereto. A supernatant obtained by a centrifugation operation was used as BK (C). These samples were measured by reverse-phase LC/MS.
Then, the samples A, B and C were analyzed for the 1000 compounds or 500 compounds using TraceFinder 5.1 (Thermo Fisher Scientific Inc.) and CHANCE Software (in-house), and an ASMS ratio (%) was calculated according to the following expression.
The mixtures obtained from Example 8 were tested at the number of data of 2 (N1 and N2) in order to ensure reproducibility. The mixtures obtained from Example 9 were tested at the total number of data 4 (N1,N2, N3, and N4) involving the number of data of 2/day (N1 and N2) and data obtained on additional days.

Human Bcl-2 protein [2] = biological target: T2, Human Bcl-2 protein (Homo sapiens, UniProt P10415); assay: Evaluation of binding of compound to Bcl-2 by surface plasmon resonance (SPR)-2, Example 13; settings: for equilibrium dissociation constant KD compared with B2Q045-01 (KD=1.20 μM) or B2Q048-01 (KD=0.480 μM): Biacore T200, 15° C.; for pKd: Biacore T200, biotinylated Bcl-2 immobilized on Sensor Chip SA, 15° C., read-out: Equilibrium dissociation constant KD
T2 construct: purchased Novus Biologicals
Description: (§1) A surface plasmon resonance method was used in order to analyze the binding affinity of the compounds synthesized in Example 12 for Bcl-2, which are shown in Table 13-1. The apparatus used was Biacore T200 (GE Healthcare Japan Corp.), and the running buffer used was HBS (10 mM HEPES-NaOH and 150 mM NaCl, pH 7.4) supplemented with 1 mM DTT, 3 mM EDTA, 0.01% Tween 20 and 4% DMSO. Human Bcl-2 protein (Novus Biologicals) was biotinylated using EZ-Link NHS-PEG4-Biotin (Thermo Fisher scientific Inc.) and immobilized on the surface of Sensor Chip SA (Cytiva). Then, compound solutions having a plurality of concentrations and the running buffer (blank) were added to the Bcl-2-immobilized surface to obtain the binding response of the compounds. Measurement was performed at 15° C.
The obtained sensorgrams were treated with Biacore T200 Evaluation Software, and the equilibrium dissociation constant KD of each compound for Bcl-2 was determined as shown in the following Table 13-2.

Human Bcl-2 protein [3] = biological target: T2, Human Bcl-2 protein; assay: Evaluation of binding of compound to Bcl-2 by surface plasmon resonance (SPR), Example 7; settings: for equilibrium dissociation constant compared with compound B2Q045-01: SPR, comparison with B2Q045-01; for binding to Bcl-2 confirmed by SPR: compounds identified by AS-MS (Example 5), individually synthesized
Description: as §1, with “1 and Example 6,” for “12 for Bcl-2,”, “AK-01, for Bcl-2.” for “13-1.”, “Sulfo-NHS-LC-LC-biotin” for “NHS-PEG4-Biotin”, “(GE Healthcare Japan Corp.).” for “(Cytiva).”, “C.′.” for “C.”
The obtained sensorgrams were treated with Biacore T200 Evaluation Software, and the equilibrium dissociation constant KD of each compound for Bel-2 was determined as shown in the following Table AK-02 and Table AK-03.

T1 sequence (P10415 whole entry): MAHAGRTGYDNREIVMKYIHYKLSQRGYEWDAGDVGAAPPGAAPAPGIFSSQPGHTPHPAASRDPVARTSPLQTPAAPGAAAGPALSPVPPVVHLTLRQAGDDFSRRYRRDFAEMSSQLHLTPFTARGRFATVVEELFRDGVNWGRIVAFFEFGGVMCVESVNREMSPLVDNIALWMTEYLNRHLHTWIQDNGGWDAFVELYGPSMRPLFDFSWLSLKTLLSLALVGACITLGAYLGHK
T2 sequence (P10415 whole entry): as above

SMILES	AS-MS(%) N1 [1] [%]	AS-MS(%) N2 [1] [%]	AS-MS(%) N3 [1] [%]	AS-MS(%) N4 [1] [%]	pKd (Human Bcl-2 protein [2])	binding to Bcl-2 confirmed by SPR (Human Bcl-2 protein [3])	equilibrium dissociation constant KD compared with B2Q045-01 (KD=1.20 μM) or B2Q048-01 (KD=0.480 μM) (Human Bcl-2 protein [2])	equilibrium dissociation constant compared with compound B2Q045-01 (Human Bcl-2 protein [3])
CC(C(=O)Nc1ccc(C(F)(F)F)cc1)c1cc(O)cc(N2CCN(c3ccc(C(=O)NS(=O)(=O)c4ccc(N[C@H](CCN5CCOCC5)CSc5ccccc5)c([N+](=O)[O-])c4)cc3)CC2)c1 (some centres unmarked) [2-2-d1E04-1-0498]	45.5	61.4	52.7	51.0	5.60	–	–	–
CCOc1cc(N2CCN(c3ccc(C(=O)NS(=O)(=O)c4ccc(N[C@H](CCN5CCOCC5)CSc5ccccc5)c([N+](=O)[O-])c4)cc3)CC2)cc2c1CCCC2C(=O)Nc1ccccc1 (some centres unmarked) [2-2-d1E04-2-0466]	53.4	45.9	33.3	36.8	5.61	–	–	–
CCOc1cccc(-c2ccc(CN3CCN(c4ccc(C(=O)NS(=O)(=O)c5ccc(NCCSc6ccccc6)c([N+](=O)[O-])c5)cc4)CC3)cc2C)c1 [Compound B2Q047-01, 4-[4-[[4-(3-ethoxyphenyl)-3-methylphenyl]methyl]piperazin-1-yl]-N-[3-nitro-4-(2-phenylsulfanylethylamino)phenyl]sulfonylbenzamide]	–	–	–	–	–	confirmed to bind by SPR	–	smaller equilibrium dissociation constant Kp
CCOc1cncc(-c2ccc(CN3CCN(c4ccc(C(=O)NS(=O)(=O)c5ccc(NCCSc6ccccc6)c([N+](=O)[O-])c5)cc4)CC3)cc2C)c1 [Compound B2Q048-01, 4-[4-[[4-(5-ethoxypyridin-3-yl)-3-methylphenyl]methyl]piperazin-1-yl]-N-[3-nitro-4-(2-phenylsulfanylethylamino)phenyl]sulfonylbenzamide]	–	–	–	–	–	confirmed to bind by SPR	–	smaller equilibrium dissociation constant Kp
CCOc1cncc(-c2ccc(CN3CCN(c4ccc(C(=O)NS(=O)(=O)c5ccc(NCCSc6ccccc6)c([N+](=O)[O-])c5)cc4)CC3)c3ccccc23)c1 [Compound B2Q066-01, 4-[4-[[4-(5-ethoxypyridin-3-yl)naphthalen-1-yl]methyl]piperazin-1-yl]-N-[3-nitro-4-(2-phenylsulfanylethylamino)phenyl]sulfonylbenzamide]	–	–	–	–	–	–	–	smaller equilibrium dissociation constant Kp

More lines, main results first:

AS-MS(%) N1 [1] [%]	AS-MS(%) N2 [1] [%]	AS-MS(%) N3 [1] [%]	AS-MS(%) N4 [1] [%]	pKd (Human Bcl-2 protein [2])	binding to Bcl-2 confirmed by SPR (Human Bcl-2 protein [3])	SMILES	equilibrium dissociation constant KD compared with B2Q045-01 (KD=1.20 μM) or B2Q048-01 (KD=0.480 μM) (Human Bcl-2 protein [2])	equilibrium dissociation constant compared with compound B2Q045-01 (Human Bcl-2 protein [3])
72.6	87.8	78.5	74.6	6.10	–	CC(C(=O)Nc1ccc(F)cc1)c1cc(O)cc(N2CCN(c3ccc(C(=O)NS(=O)(=O)c4ccc(N[C@H](CCN5CCOCC5)CSc5ccccc5)c([N+](=O)[O-])c4)cc3)CC2)c1 (some centres unmarked) [2-2-d1E04-1-0454]	smaller equilibrium dissociation constant KD	–
59.4	93.2	85.8	69.0	6.79	–	CC(C(=O)Nc1nc2ccccc2s1)c1cc(O)cc(N2CCN(c3ccc(C(=O)NS(=O)(=O)c4ccc(N[C@H](CCN5CCOCC5)CSc5ccccc5)c([N+](=O)[O-])c4)cc3)CC2)c1 (some centres unmarked) [2-2-d1E04-1-0495]	smaller equilibrium dissociation constant KD	–
43.8	48.8	53.8	65.5	6.07	–	CCOc1cc(C(C)C(=O)Nc2ccccc2)cc(N2CCN(c3ccc(C(=O)NS(=O)(=O)c4ccc(N[C@H](CCN5CCOCC5)CSc5ccccc5)c([N+](=O)[O-])c4)cc3)CC2)c1 (some centres unmarked) [2-2-d1E04-2-0417]	smaller equilibrium dissociation constant KD	–
62.1	45.0	44.0	46.2	5.88	–	CCOc1cc(C(C)C(=O)Nc2ccc(C)cc2)cc(N2CCN(c3ccc(C(=O)NS(=O)(=O)c4ccc(N[C@H](CCN5CCOCC5)CSc5ccccc5)c([N+](=O)[O-])c4)cc3)CC2)c1 (some centres unmarked) [2-2-d1E04-2-0446]	–	–
36.4	42.2	58.2	62.7	5.97	–	CCOc1cc(C(C)C(=O)Nc2ccc(F)cc2)cc(N2CCN(c3ccc(C(=O)NS(=O)(=O)c4ccc(N[C@H](CCN5CCOCC5)CSc5ccccc5)c([N+](=O)[O-])c4)cc3)CC2)c1 (some centres unmarked) [2-2-d1E04-2-0454]	smaller equilibrium dissociation constant KD	–
52.7	137.5	56.0	50.3	6.15	–	CCOc1cc(C(C)C(=O)Nc2nc3ccccc3s2)cc(N2CCN(c3ccc(C(=O)NS(=O)(=O)c4ccc(N[C@H](CCN5CCOCC5)CSc5ccccc5)c([N+](=O)[O-])c4)cc3)CC2)c1 (some centres unmarked) [2-2-d1E04-2-0495]	smaller equilibrium dissociation constant KD	–
